The supplement of paper PMC13380429

What was measured:
Settings in all cases: 72 h
Calu-3 [1] = test: relative viability EC50 (midpoint between 100% and the lowest measured viability); higher = less toxic
U2OS [2] = test: as above
Vero E6 [3] = test: as above
Caco-2 [4] = test: as above
Calu-3 [5] = test: cell viability relative to DMSO; higher = less toxic
U2OS [6] = test: as above
Vero E6 [7] = test: as above
Caco-2 [8] = test: as above
Calu-3 [9] = test: drug sensitivity score (DSS) for viability; higher = more toxic; extreme values may be limits of the assay
U2OS [10] = test: as above
Vero E6 [11] = test: as above
Caco-2 [12] = test: as above
HepG2 [13] = test: cell viability relative to DMSO; higher = less toxic
HepG2 [14] = test: drug sensitivity score (DSS) for viability; higher = more toxic; extreme values may be limits of the assay

SMILES	relative viability EC50 (Calu-3 [1])	relative viability EC50 (U2OS [2])	relative viability EC50 (Vero E6 [3])	relative viability EC50 (Caco-2 [4])	cell viability (Calu-3 [5]; 1 nM)	cell viability (Calu-3 [5]; 10 nM)	cell viability (Calu-3 [5]; 100 nM)	cell viability (Calu-3 [5]; 1000 nM)	cell viability (Calu-3 [5]; 10000 nM)	cell viability (U2OS [6]; 1 nM)	cell viability (U2OS [6]; 10 nM)	cell viability (U2OS [6]; 100 nM)	cell viability (U2OS [6]; 1000 nM)	cell viability (U2OS [6]; 10000 nM)	cell viability (Vero E6 [7]; 1 nM)	cell viability (Vero E6 [7]; 10 nM)	cell viability (Vero E6 [7]; 100 nM)	cell viability (Vero E6 [7]; 1000 nM)	cell viability (Vero E6 [7]; 10000 nM)	cell viability (Caco-2 [8]; 1 nM)	cell viability (Caco-2 [8]; 10 nM)	cell viability (Caco-2 [8]; 100 nM)	cell viability (Caco-2 [8]; 1000 nM)	cell viability (Caco-2 [8]; 10000 nM)	drug sensitivity score (Calu-3 [9])	drug sensitivity score (U2OS [10])	drug sensitivity score (Vero E6 [11])	drug sensitivity score (Caco-2 [12])	cell viability (HepG2 [13]; 1 nM)	cell viability (HepG2 [13]; 10 nM)	cell viability (HepG2 [13]; 100 nM)	cell viability (HepG2 [13]; 1000 nM)	cell viability (HepG2 [13]; 10000 nM)	drug sensitivity score (HepG2 [14])
COCc1nnc(N2CC(Oc3ccc(F)cc3Cl)C2)n1-c1ccc(OC)nc1	> 10 µM	> 10 µM	> 10 µM	> 10 µM	92.8%	103%	101%	104%	113%	93.3%	93.6%	95.6%	103%	97.4%	97.8%	93.1%	101%	90.9%	106%	88.5%	105%	102%	105%	97.5%	0	0	0	0						
NCC(=O)Nc1ccc(-n2nc(C(F)(F)F)cc2-c2ccc3c(ccc4ccccc43)c2)cc1 [AR-12]	3.39 µM	> 10 µM		> 10 µM	103%	98.2%	98.9%	102%	45.4%	89.7%	98.9%	95%	100%	89%	97.4%	94.3%	95.7%	80.4%	68.2%	96.8%	91%	87.9%	96.8%	92.1%	2.7	0	3.5	0	110%	96.1%	103%	105%	71.5%	0.9
CN(C[C@@H]1COCCO1)S(=O)(=O)Nc1ccc2ccc3ncc(-c4cnn(C)c4)cc3c(=O)c2c1 [MK-2461]	> 10 µM				81.9%	89%	84%	90.7%	93.9%	89.1%	98.8%	99.2%	96.9%	64.1%	103%	97.7%	97.3%	93.2%	59.7%	103%	97.9%	94.5%	99.7%	64.5%	0	2.2	3.1	1.7	96.6%	96.6%	96.5%	91.4%	58.6%	3.5
COc1ccccc1S(=O)(=O)Nc1ccc2c(c1)CN(C)C(=O)N2 [PFI-1]			1.65 µM	> 10 µM	102%	92.6%	102%	88%	58.2%						102%	102%	96.2%	81.5%	16.3%	102%	102%	107%	94%	75.7%	3.9		7.6	1.7	108%	103%	94.3%	94.4%	50.1%	3.6
Cc1cc(C)nc(SCC(=O)Nc2ncc(Cc3cccc4ccccc34)s2)n1 [SirReal-2]	> 10 µM	> 10 µM		> 10 µM	97%	95.7%	95.1%	91%	102%	94.7%	103%	96.6%	101%	92.8%						104%	101%	93.4%	99.6%	96.6%	0	0		0						
C=CC(=O)O [acrylate]																									0	0	0							0
CN(C)CCc1c[nH]c2ccc(CS(=O)(=O)N3CCCC3)cc12 [almotriptan]	> 10 µM	> 10 µM		> 10 µM	98.8%	103%	108%	97.8%	106%	101%	104%	101%	98.6%	100%						92.9%	97.9%	99.9%	109%	106%	0	0		0						
C[C@]12C=CC(=O)N[C@@H]1CC[C@@H]1[C@@H]2CC[C@]2(C)[C@@H](C(=O)Nc3cc(C(F)(F)F)ccc3C(F)(F)F)CC[C@@H]12 [dutasteride]	> 10 µM			> 10 µM	111%	99%	98.2%	105%	106%											111%	93%	105%	97.4%	104%	0			0						
FC(F)OC(F)(F)C(F)Cl (stereo not given) [enflurane]	> 10 µM		> 10 µM	> 10 µM	85.1%	94.2%	85.6%	101%	103%						94.7%	103%	98.4%	104%	103%	96.9%	104%	98.3%	103%	107%	0		0	0						
O=C1OC2(c3ccccc31)c1cc(I)c(O)c(I)c1Oc1c2cc(I)c(O)c1I [erythrosine]					102%	104%	113%	86.6%	53.6%	94.6%	91.7%	97%	88.7%	57.3%	87.3%	96.4%	98.7%	81.6%	64.5%	99.2%	98.7%	102%	93.8%	51.9%	4.4	3.9	3.7	3.6	104%	109%	97.6%	103%	53.4%	2.2
CC(C)(C(=O)O)c1ccc(C(O)CCCN2CCC(C(O)(c3ccccc3)c3ccccc3)CC2)cc1 (stereo not given) [fexofenadine]																									0	0	0							
CCC(=O)O[C@H](CC(=O)O)C[N+](C)(C)C [levocarnitine-propionate]	> 10 µM		> 10 µM	> 10 µM	87.9%	108%	97.9%	100%	85.8%						106%	105%	99.2%	100%	104%	94.7%	103%	98.7%	108%	98.5%	0.2		0	0						
COc1c(N2C[C@@H]3CCCN[C@@H]3C2)c(F)cc2c(=O)c(C(=O)O)cn(C3CC3)c12 [moxifloxacin]																									0	0	0							0
CO[C@@H]1[C@@H](OC(N)=O)[C@@H](O)[C@H](Oc2ccc3c(O)c(NC(=O)c4ccc(O)c(CC=C(C)C)c4)c(=O)oc3c2C)OC1(C)C [novobiocin]	> 10 µM			> 10 µM	98.1%	101%	98.8%	93.6%	81.2%											124%	92.9%	109%	108%	112%	1.1			0						
CCOC(=O)c1ccc(OCCC2CCN(c3ccc(C)nn3)CC2)cc1 [pirodavir]																									0	0	0							0
Nc1ccc(S(=O)(=O)Nc2ccccn2)cc1 [sulfapyridine]																									0	0	0							0
CC/C(=C(\c1ccccc1)c1ccc(OCCN(C)C)cc1)c1ccccc1 [tamoxifen]		> 10 µM			103%	95.5%	94.7%	86%	52.7%	94.6%	102%	93%	97.2%	87.6%	98.9%	90%	93.3%	86.9%	58.9%						4.2	0	3.4		105%	106%	105%	102%	73.3%	0.9
COc1cc2/c(=N/c3ccc(Br)cc3F)nc[nH]c2cc1OCC1CCN(C)CC1 [vandetanib]	1.24 µM		1.3 µM		101%	95.3%	85.7%	66.2%	13.4%						104%	100%	98.3%	72.9%	20.6%	109%	105%	86%	88.4%	57.2%	8.7		8.2	3.3	113%	106%	110%	96.7%	74%	1.5
